For 10 compounds, IC50 results are on record in patent publication US8343976B2, “Compounds, compositions and methods comprising pyrazole derivatives” (Institute for OneWorld Health, priority 2009, dated 2013).

pIC50: −log10 of the molar value.

The experiment deals with T1, CFTR (Homo sapiens, UniProt P13569).
T1 construct: results in the phosphorylation and opening of CFTR anion channels; host or cells: Human colonic T84 cells
Kind of experiment: T84 assay (FLIPR membrane potential dye, forskolin/IBMX-stimulated CFTR channel activity). It is filed as cell-based. The note with it: Human colonic T84 cells; 10 μM forskolin + 100 μM IBMX; average of at least 2 runs unless marked n = 1. As to the method:
(§1) For example, Human colonic T84 cells can be acquired from the European Collection of Cell Cultures (ECACC) and grown in standard culture conditions as described by the supplier. On the day before assay 25,000 T84 cells per well are plated into standard black walled, clear bottom 384-well assay plates in standard growth medium consisting of DMEM:F12 with 10% FBS and incubated overnight. On the day of the assay the plates are washed using a standard assay buffer (HBSS with 10 mM Hepes) and incubated for 15 minutes in serum free cell culture medium before the addition of a commercially available membrane potential sensitive fluorescent dye (FLIPR Red membrane potential dye, Molecular Devices Corporation). T84 cells are incubated with the FLIPR Red membrane potential dye for 45 minutes in the presence and absence of test compound before being transferred to a commercially available fluorescence imaging plate reader (FLIPR384, Molecular Devices Corporation). Fluorescence levels are monitored continuously every second for 150 seconds; after an initial 10 second baseline, CFTR channel activity is stimulated through the addition of 10 μM forskolin in the presence of 100 μM of the phosphodiesterase inhibitor iso-butylmethylxanthine (IBMX). Addition of the forskolin leads to the activation of intracellular adenylyl cylase 1, elevating cAMP levels and results in the phosphorylation and opening of CFTR anion channels. CFTR channel opening causes chloride ion efflux and subsequent depolarization of the cells, which is measured by an increase in fluorescence. CFTR inhibitor compounds prevent cell depolarization and the associated increase in fluorescence.
as §1, with “Human colonic” for “For example, Human colonic”, “T84 cells are acquired from” for “T84 cells can be acquired from”, “(ECACC) and are grown in” for “(ECACC) and grown in”

T1 sequence (P13569 whole entry): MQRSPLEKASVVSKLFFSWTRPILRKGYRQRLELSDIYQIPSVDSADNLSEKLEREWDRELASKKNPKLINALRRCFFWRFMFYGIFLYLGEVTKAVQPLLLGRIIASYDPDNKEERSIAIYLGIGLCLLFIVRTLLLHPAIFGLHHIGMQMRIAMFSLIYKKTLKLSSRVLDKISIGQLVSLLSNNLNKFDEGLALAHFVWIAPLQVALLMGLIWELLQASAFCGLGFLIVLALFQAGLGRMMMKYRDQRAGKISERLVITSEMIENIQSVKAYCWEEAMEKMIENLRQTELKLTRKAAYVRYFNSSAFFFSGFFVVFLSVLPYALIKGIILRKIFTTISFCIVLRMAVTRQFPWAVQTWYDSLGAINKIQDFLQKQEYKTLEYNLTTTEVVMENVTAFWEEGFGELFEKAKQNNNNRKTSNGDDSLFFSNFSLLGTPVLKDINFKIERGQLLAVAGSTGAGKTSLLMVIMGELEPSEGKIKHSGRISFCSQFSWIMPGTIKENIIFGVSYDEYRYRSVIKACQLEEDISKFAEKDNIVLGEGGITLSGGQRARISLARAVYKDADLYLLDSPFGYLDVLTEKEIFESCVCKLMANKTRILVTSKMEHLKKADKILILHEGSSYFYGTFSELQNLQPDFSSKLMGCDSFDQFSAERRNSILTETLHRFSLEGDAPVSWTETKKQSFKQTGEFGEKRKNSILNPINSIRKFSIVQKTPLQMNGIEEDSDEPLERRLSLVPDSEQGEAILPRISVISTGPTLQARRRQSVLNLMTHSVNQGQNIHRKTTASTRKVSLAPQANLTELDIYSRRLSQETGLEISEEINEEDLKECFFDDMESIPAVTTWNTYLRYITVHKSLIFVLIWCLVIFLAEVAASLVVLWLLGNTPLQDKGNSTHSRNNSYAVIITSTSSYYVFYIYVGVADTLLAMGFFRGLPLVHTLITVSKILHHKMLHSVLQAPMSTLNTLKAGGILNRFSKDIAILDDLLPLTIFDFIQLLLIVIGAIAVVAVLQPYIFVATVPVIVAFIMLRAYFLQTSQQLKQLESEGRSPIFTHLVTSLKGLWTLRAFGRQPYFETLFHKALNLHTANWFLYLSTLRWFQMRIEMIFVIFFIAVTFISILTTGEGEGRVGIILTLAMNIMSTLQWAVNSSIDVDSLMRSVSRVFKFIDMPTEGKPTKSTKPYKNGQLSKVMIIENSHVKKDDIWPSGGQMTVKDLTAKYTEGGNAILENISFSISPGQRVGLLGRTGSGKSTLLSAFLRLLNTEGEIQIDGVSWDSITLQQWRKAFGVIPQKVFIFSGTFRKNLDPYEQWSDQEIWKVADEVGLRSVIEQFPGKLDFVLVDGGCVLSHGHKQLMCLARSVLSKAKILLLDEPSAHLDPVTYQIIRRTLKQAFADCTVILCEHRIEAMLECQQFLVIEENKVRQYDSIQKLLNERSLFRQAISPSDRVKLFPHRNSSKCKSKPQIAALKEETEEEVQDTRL

As to `CN(Cc1cccc(C(F)(F)F)c1)C(=O)c1cc(-c2cc(Cl)c(O)c(Cl)c2)n[nH]1` [Compound 1, 3-(3,5-dichloro-4-hydroxyphenyl)-N-methyl-N-(3-(trifluoromethyl)benzyl)-1H-pyrazole-5-carboxamide], the negative-log IC50 (pIC50) was 5.04.
On to `O=C(NCc1cccc(OC(F)(F)F)c1)c1cc(-c2cc(Cl)c(O)c(Cl)c2)n[nH]1` [Compound 2, 3-(3,5-dichloro-4-hydroxyphenyl)-N-(3-(trifluoromethoxy)benzyl)-1H-pyrazole-5-carboxamide], for which the pIC50 was 4.73.
On to `O=C(NCCC(c1ccccc1)c1ccccc1)c1cc(-c2cc(Cl)c(O)c(Cl)c2)n[nH]1` [Compound 3, 3-(3,5-dichloro-4-hydroxyphenyl)-N-(3,3-diphenylpropyl)-1H-pyrazole-5-carboxamide], for which the pIC50 is 5.46.
Regarding `CN(Cc1ccc(Oc2ccccc2)cc1)C(=O)c1cc(-c2cc(Cl)c(O)c(Cl)c2)n[nH]1` [Compound 4, 3-(3,5-dichloro-4-hydroxyphenyl)-N-methyl-N-(4-phenoxybenzyl)-1H-pyrazole-5-carboxamide], the negative-log IC50 (pIC50) is 4.68.
For the compound `O=C(NCc1ccc(Cl)c(Cl)c1)c1cc(-c2cc(Cl)c(O)c(Cl)c2)n[nH]1` [Compound 5, 3-(3,5-dichloro-4-hydroxyphenyl)-N-(3,4-dichlorobenzyl)-1H-pyrazole-5-carboxamide], the pIC50 is 4.53.
Regarding `CC(C)(C)c1ccc(CNC(=O)c2cc(-c3cc(Cl)c(O)c(Cl)c3)n[nH]2)cc1` [Compound 6, N-(4-tert-butylbenzyl)-3-(3,5-dichloro-4-hydroxyphenyl)-1H-pyrazole-5-carboxamide], the pIC50 was 4.76.
With `CN(Cc1ccc(Oc2ccccn2)cc1)C(=O)c1cc(-c2cc(Cl)c(O)c(Cl)c2)n[nH]1` [Compound 7, 3-(3,5-dichloro-4-hydroxyphenyl)-N-methyl-N-(4-(pyridin-2-yloxy)benzyl)-1H-pyrazole-5-carboxamide], the negative logarithm of the IC50 (pIC50) is 4.68.
Then `CN(Cc1ccc(C(C)(C)C)cc1)C(=O)c1cc(-c2cc(Cl)c(O)c(Cl)c2)n[nH]1` [Compound 8, N-(4-tert-butylbenzyl)-3-(3,5-dichloro-4-hydroxyphenyl)-N-methyl-1H-pyrazole-5-carboxamide], with 4.78; and `O=C(NCc1ccc(F)c(C(F)(F)F)c1)c1cc(-c2cc(Cl)c(O)c(Cl)c2)n[nH]1` [Compound 9, 3-(3,5-dichloro-4-hydroxyphenyl)-N-(4-fluoro-3-(trifluoromethyl)benzyl)-1H-pyrazole-5-carboxamide], with 4.53; and `O=C(c1cc(-c2cc(Cl)c(O)c(Cl)c2)n[nH]1)N1CCN(c2cccc(C(F)(F)F)c2)CC1` [Compound 10, (3-(3,5-dichloro-4-hydroxyphenyl)-1H-pyrazol-5-yl)(4-(3-(trifluoromethyl)phenyl)piperazin-1-yl)methanone], with 4.53.
